The record followed here is US20220055989A1, “CONDENSED PYRROLES AS NOVEL BROMODOMAIN INHIBITORS” (ALBERT LUDWING UNIVERSITÄT FREIBURG, priority 2018, published 2022).

Assay [1] deals with T1, BRDT(2) (Homo sapiens, UniProt Q58F21).
T1 construct: T7 phage strains displaying bromodomains were grown; host or cells: T7 phage in E. coli derived from BL21
Nature of the assay: Bromodomain assay % Ctrl determination BRDT(2). The conditions noted are these: lower numbers indicate a stronger binding. On the procedure: (§1) Compounds that bind the bromodomain prevent its binding to the immobilized ligand thus reducing the amount of protein captured. […] Hits are identified by measuring the amount of bromodomain captured in test versus control samples. Bromodomain assays for % Ctrl determination: T7 phage strains displaying bromodomains were grown in parallel in 24-well blocks in an E. coli host derived from the BL21 strain. E. coli were grown to log-phase and infected with T7 phage from a frozen stock (multiplicity of infection=0.4) and incubated with shaking at 32° C. until lysis (90-150 minutes). The lysates were centrifuged (5,000×g) and filtered (0.2 μm) to remove cell debris. […] The liganded beads were blocked with excess biotin and washed with blocking buffer (SeaBlock (Pierce), 1% BSA, 0.05% Tween 20, 1 mM DTT) to remove unbound ligand and to reduce non-specific phage binding. […] Test compounds were prepared as 1000× stocks in 100% DMSO and subsequently diluted 1:25 in monoethylene glycol (MEG). The compounds were then diluted directly into the assays such that the final concentrations of DMSO and MEG were 0.1% and 2.4%, respectively. All reactions were performed in polypropylene 384-well plates in a final volume of 0.02 ml. […] The bromodomain concentration in the eluates was measured by qPCR. […]

For assay [2], the target named is T2, TAF1L(2) (Homo sapiens, UniProt Q8IZX4).
T2 construct: FALZ, PBRM1-BD2, BPRM1-BDS, TAF1-BD2, TAF1L-BD2; host or cells: T7 phage grown in E. coli host derived from BL21
T2 sequence (Q8IZX4 1517-1626 limits assumed): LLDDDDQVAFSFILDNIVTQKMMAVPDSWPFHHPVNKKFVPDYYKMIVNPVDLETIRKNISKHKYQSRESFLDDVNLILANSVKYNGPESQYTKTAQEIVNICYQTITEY
As to the kind of experiment: Bromodomain assay % Ctrl determination TAF1L(2). To be noted: lower numbers indicate a stronger binding. Here is the method: as §1

For assay [3], the target named is T3, BRPF3 (Homo sapiens, UniProt Q9ULD4).
T3 construct: T7 phage strains displaying bromodomains were grown; host or cells: T7 phage in E. coli derived from BL21
T3 sequence (Q9ULD4 589-693 limits assumed): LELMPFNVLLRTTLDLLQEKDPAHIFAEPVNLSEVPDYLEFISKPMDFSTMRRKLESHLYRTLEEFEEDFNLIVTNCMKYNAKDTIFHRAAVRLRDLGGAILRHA
Nature of the assay: Bromodomain assay % Ctrl determination BRPF3. The conditions noted are these: lower numbers indicate a stronger binding. Here is the method:
as §1

Assay [4] deals with T4, BRD9 (Homo sapiens, UniProt Q9H8M2).
T4 construct: T7 phage strains displaying bromodomains were grown; host or cells: T7 phage in E. coli derived from BL21
T4 sequence (Q9H8M2 136-240 limits assumed): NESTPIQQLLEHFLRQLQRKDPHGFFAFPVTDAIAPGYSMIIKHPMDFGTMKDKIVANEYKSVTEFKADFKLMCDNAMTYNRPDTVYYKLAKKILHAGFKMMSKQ
Nature of the assay: Bromodomain assay % Ctrl determination BRD9. To be noted: lower numbers indicate a stronger binding. Here is the method: as §1

The target in assay [5] is T5, BRD4(2) (Homo sapiens, UniProt O60885).
T5 construct: T7 phage strains displaying bromodomains were grown; host or cells: T7 phage in E. coli derived from BL21
As to the kind of experiment: Bromodomain assay % Ctrl determination BRD4(2). The conditions noted are these: lower numbers indicate a stronger binding. Here is the method:
as §1

The target in assay [6] is T6, BRDT(1) (Homo sapiens, UniProt Q58F21).
T6 construct: T7 phage strains displaying bromodomains were grown; host or cells: T7 phage in E. coli derived from BL21
Nature of the assay: Bromodomain assay % Ctrl determination BRDT(1). The conditions noted are these: lower numbers indicate a stronger binding. On the procedure: as §1

The target in assay [7] is T7, EP300 (Homo sapiens, UniProt Q09472).
T7 construct: T7 phage strains displaying bromodomains were grown; host or cells: T7 phage in E. coli derived from BL21
T7 sequence (Q09472 1049-1156 limits assumed): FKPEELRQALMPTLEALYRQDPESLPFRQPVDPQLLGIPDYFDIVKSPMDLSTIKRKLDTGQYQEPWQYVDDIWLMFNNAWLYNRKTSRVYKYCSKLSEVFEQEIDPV
Nature of the assay: Bromodomain assay % Ctrl determination EP300. To be noted: lower numbers indicate a stronger binding. On the procedure:
as §1

Assay [8] deals with T8, PCAF (Homo sapiens, UniProt Q92831).
T8 construct: T7 phage strains displaying bromodomains were grown in parallel; host or cells: T7 phage grown in E. coli host derived from BL21
T8 sequence (Q92831 723-827 limits assumed): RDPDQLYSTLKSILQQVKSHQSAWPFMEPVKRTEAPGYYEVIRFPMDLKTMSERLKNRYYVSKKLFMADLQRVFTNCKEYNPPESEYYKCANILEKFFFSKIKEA
As to the kind of experiment: Bromodomain assay % Ctrl determination PCAF. The conditions noted are these: lower numbers indicate a stronger binding. Here is the method:
as §1

Assay [9] deals with T9, PBRM1(2) (Homo sapiens, UniProt Q86U86).
T9 construct: FALZ, PBRM1-BD2, BPRM1-BDS, TAF1-BD2, TAF1L-BD2; host or cells: T7 phage grown in E. coli host derived from BL21
T9 sequence (Q86U86 177-287 limits assumed): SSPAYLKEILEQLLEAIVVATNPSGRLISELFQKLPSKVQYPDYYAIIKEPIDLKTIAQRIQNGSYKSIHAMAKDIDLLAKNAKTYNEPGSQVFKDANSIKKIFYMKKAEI
As to the kind of experiment: BROMOscan Kd determination PBRM1(2). Type of assay: binding. Here is the method:
(§2) Bromodomain profiling was carried out on the basis of BROMOscan™. This platform accounted for the indirect determination of the dissociation constants between 19 bromodomains and the compound of formula (13), by binding competition against a reference immobilized ligand. Compounds that bind the bromodomain prevent its binding to the immobilized ligand thus reducing the amount of protein captured. […] Hits are identified by measuring the amount of bromodomain captured in test versus control samples. Bromodomain assays for Kd determination: T7 phage strains displaying bromodomains were grown in parallel in 24-well blocks in an E. coli host derived from the BL21 strain. E. coli were grown to log-phase and infected with T7 phage from a frozen stock (multiplicity of infection=0.4) and incubated with shaking at 32° C. until lysis (90-150 minutes). The lysates were centrifuged (5,000×g) and filtered (0.2 μm) to remove cell debris. […] Kds were determined using an 11-point 3-fold compound dilution series with one DMSO control point. […] The bromodomain concentration in the eluates was measured by qPCR. […] Most Kds were determined using a compound top concentration=10,000 nM. […] Binding Constants (Kds): Binding constants (Kds) were calculated with a standard dose-response curve using the Hill equation: The Hill Slope was set to −1. […]

In assay [10] the target is T10, SMARCA2 (Homo sapiens, UniProt P51531).
T10 construct: T7 phage strains displaying bromodomains were grown in parallel; host or cells: T7 phage grown in E. coli host derived from BL21
T10 sequence (P51531 1378-1506 limits assumed): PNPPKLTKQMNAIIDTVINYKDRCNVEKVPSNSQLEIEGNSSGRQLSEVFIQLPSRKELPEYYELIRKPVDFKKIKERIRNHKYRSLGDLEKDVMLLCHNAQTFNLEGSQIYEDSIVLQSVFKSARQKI
Nature of the assay: BROMOscan Kd determination SMARCA2. Type of assay: binding. Here is the method: as §2

In assay [11] the target is T11, BRDT(1, 2) (Homo sapiens, UniProt Q58F21).
T11 construct: T7 phage strains displaying bromodomains were grown; host or cells: T7 phage in E. coli derived from BL21
Nature of the assay: BROMOscan Kd determination BRDT(1, 2). Type of assay: binding. On the procedure: as §2

In assay [12] the target is T12, BRD1 (Homo sapiens, UniProt O95696).
T12 construct: T7 phage strains displaying bromodomains were grown in parallel; made in house; host or cells: T7 phage grown in an E. coli host derived from the BL21 strain
T12 sequence (O95696 562-666 limits assumed): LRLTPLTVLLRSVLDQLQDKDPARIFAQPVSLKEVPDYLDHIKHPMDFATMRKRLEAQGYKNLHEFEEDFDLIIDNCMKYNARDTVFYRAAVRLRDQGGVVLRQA
Nature of the assay: BROMOscan Kd determination BRD1. Type of assay: binding. Here is the method:
as §2

The target in assay [13] is T13, BRD8(1) (Homo sapiens, UniProt Q9H0E9).
T13 construct: T7 phage strains displaying bromodomains were grown; host or cells: T7 phage in E. coli derived from BL21
T13 sequence (Q9H0E9 706-811 limits assumed): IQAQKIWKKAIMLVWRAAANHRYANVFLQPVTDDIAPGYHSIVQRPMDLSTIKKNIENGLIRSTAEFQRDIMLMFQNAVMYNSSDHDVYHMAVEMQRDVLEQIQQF
Nature of the assay: BROMOscan Kd determination BRD8(1). Type of assay: binding. Here is the method: as §2

Assay [14] deals with T14, GCN5L2 (Homo sapiens, UniProt Q92830).
T14 construct: T7 phage strains displaying bromodomains were grown in parallel; host or cells: T7 phage grown in E. coli host derived from BL21
T14 sequence (Q92830 728-832 limits assumed): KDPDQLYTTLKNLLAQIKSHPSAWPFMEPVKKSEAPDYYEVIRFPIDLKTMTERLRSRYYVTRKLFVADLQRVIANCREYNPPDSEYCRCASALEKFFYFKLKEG
As to the kind of experiment: BROMOscan Kd determination GCN5L2. Type of assay: binding. On the procedure:
as §2

Assay [15] concerns the target T15, CREBBP (Homo sapiens, UniProt Q92793).
T15 construct: T7 phage strains displaying bromodomains were grown; host or cells: T7 phage in E. coli derived from BL21
As to the kind of experiment: BROMOscan Kd determination CREBBP. Type of assay: binding. Here is the method:
as §2

In assay [16] the target is T3, BRPF3. Nature of the assay: BROMOscan Kd determination BRPF3. Type of assay: binding. Here is the method:
as §2

T15 sequence (Q92793 1085-1192 limits assumed): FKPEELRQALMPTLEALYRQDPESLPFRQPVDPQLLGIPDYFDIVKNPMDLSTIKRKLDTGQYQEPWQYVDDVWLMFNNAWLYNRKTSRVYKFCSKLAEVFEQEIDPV

Regarding `COc1ccc(S(=O)(=O)N2CCOCC2)cc1NC(=O)c1[nH]c(C)c2c1CCCCC2=O` [Compound 13, N-(2-methoxy-5-(morpholinosulfonyl)phenyl)-3-methyl-4-oxo-2,4,5,6,7,8-hexahydrocyclohepta[c]pyrrole-1-carboxamide], the “% Ctrl @ 10 000 nM BRDT(2)” value in [1] was 0.65 % Ctrl. For the same molecule, the “% Ctrl @ 10 000 nM TAF1L(2)” value in assay [2] came to 40 % Ctrl. Besides, the “% Ctrl @ 10 000 nM BRPF3” value in assay [3] was 35 % Ctrl. For the same molecule, in assay [4], the “% Ctrl @ 10 000 nM BRD9” value was 0 % Ctrl. In addition, the “% Ctrl @ 10 000 nM BRD4(2)” value in assay [5] is given as 0 % Ctrl. Moreover, the “% Ctrl @ 10 000 nM BRDT(1)” value in [6] was found to be 0 % Ctrl. Moreover, the “% Ctrl @ 10 000 nM EP300” value in assay [7] is recorded as 1.4 % Ctrl. In assay [8], the “% Ctrl @ 10 000 nM PCAF” value is given as 20 % Ctrl.

As for `Cc1[nH]c(-c2cc(N)ccc2Cl)c2c1C(=O)CCCC2` [Compound 23], the dissociation constant (Kd) (commonly a measure of binding affinity in units of concentration) in [9] was 4.2 µM; in assay [10] it was above 10 µM; in assay [11], 0.42 µM; in [12], 3.1 µM; in assay [13] it was 2.6 µM; in [14] it was above 10 µM. In addition, the Kd in [15] came to 0.42 µM; in assay [16] it was 6 µM.
